Our source for the IC50 values is patent US10538512B2, “Aminoacylindazole immunomodulators for treatment of autoimmune diseases” (The Rockefeller University, priority 2016, dated 2020).

One assay concerns the target T1, Human alpha-thrombin (Homo sapiens, UniProt P00734).
T1 construct: Human alpha-thrombin (Enzyme Research Labs); purchased Enzyme Research Labs
The assay is described as follows: Thrombin counterscreen for selectivity, fluorogenic substrate assay. The format is biochemical. Conditions: Human alpha-thrombin 12.5 nM, Boc-Val-Pro-Arg-AMC 20 μM, 10 min preincubation. As to the method: Counterscreens for Selectivity:
In a 96-well white opaque plate, 80 μl of assay buffer was added to each well. Test compounds were added, and serially diluted as above, to generate a concentration range of approximately 1-100 μM. […] 80 μl of this enzyme solution was added to the assay wells. The enzyme/compound mixtures were incubated for 10 minutes at room temperature. Fluorogenic substrate (Boc-Val-Pro-Arg-7-amido-4-methylcoumarin; Sigma) was added to assay wells at a final concentration of 20 μM. The assay plate was spun for 1 minute at 1500 g and then read at 37° C. in a SpectraMax M2 plate reader (λex=380 nm and λem=460 nm). Activity was quantified as the rate of change in fluorescence, which corresponds to the rate of substrate cleavage.
Background: The purpose of a counterscreen is to sort out artefacts and off-target activity.

Another assay addresses T2, Human FXIIa (Homo sapiens, UniProt P00748).
T2 construct: active coagulation factor XII (FXIIa); purchased Enzyme Research Labs
T2 sequence (P00748 373-615 limits assumed): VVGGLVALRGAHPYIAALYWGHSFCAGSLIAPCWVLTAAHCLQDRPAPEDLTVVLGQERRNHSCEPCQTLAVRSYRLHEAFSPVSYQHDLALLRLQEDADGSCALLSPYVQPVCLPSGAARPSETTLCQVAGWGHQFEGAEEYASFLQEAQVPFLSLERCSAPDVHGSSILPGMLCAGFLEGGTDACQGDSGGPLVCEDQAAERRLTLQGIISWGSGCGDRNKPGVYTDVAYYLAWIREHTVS
T2 sequence (P00748 20-372 partner limits assumed): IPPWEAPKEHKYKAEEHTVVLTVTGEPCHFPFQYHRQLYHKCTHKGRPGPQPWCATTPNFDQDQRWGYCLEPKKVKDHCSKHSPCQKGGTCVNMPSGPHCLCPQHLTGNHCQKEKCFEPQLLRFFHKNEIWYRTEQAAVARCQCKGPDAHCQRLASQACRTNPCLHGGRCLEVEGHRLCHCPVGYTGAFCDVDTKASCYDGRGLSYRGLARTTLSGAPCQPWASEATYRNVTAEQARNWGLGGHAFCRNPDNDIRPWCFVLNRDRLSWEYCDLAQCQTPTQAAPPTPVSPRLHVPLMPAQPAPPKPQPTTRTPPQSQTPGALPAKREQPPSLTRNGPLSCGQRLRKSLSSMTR
The assay is described as follows: Factor XIIa (FXIIa) inhibitory activity, chromogenic substrate assay. The format is biochemical. The settings on record: Human FXIIa 12.5 nM, Pefachrome XIIa 400 μM, 10 min preincubation. The gist of the method:
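Buffer was 0.5× HBSS with 25 mM HEPES pH 7.4 and 0.5× TBS-Tween 0.05%. Enzyme and compound (about 1–100 μM) were preincubated 10 min at room temperature, then Pefachrome XIIa was added at 400 μM final. Substrate cleavage was followed as the rate of A405 change at 37 °C.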

In the case of `Cc1sc2ccccc2c1C(=O)n1nc(N)c2c1CCCC2` (single isomer, unassigned) [Example 24, (3-amino-4,5,6,7-tetrahydroindazol-1-yl)(2-methylbenzo[b]thiophen-3-yl)methanone], the half-maximal inhibitory concentration (IC50) against Human alpha-thrombin and against Human FXIIa was above 100 µM throughout.
For `C=Cc1cc2c(C(=O)n3nc4c(c3N)CCCC4)cccc2[nH]1` (single isomer, unassigned) [Example 70, (3-amino-4,5,6,7-tetrahydroindazol-2-yl)(2-vinyl-1H-indol-4-yl)methanone], the figures for the IC50 at Human alpha-thrombin and against Human FXIIa were 13 µM and 0.02 µM, respectively.
With `Nc1c2c(nn1C(=O)c1cccc3[nH]c(Cl)cc13)CCCC2` (single isomer, unassigned) [Example 55, (3-amino-4,5,6,7-tetrahydroindazol-2-yl)(2-chloro-1H-indol-4-yl)methanone], the figures for the IC50 on Human alpha-thrombin and against Human FXIIa were 20 µM and 0.01 µM, respectively.
On the same counts, the results for `CN1CCC(C(=O)n2nc3c(c2N)CCCC3)c2ccccc21` (single isomer, unassigned) [Example 73, (R*)-(3-amino-4,5,6,7-tetrahydroindazol-2-yl)(1-methyl-1,2,3,4-tetrahydroquinolin-4-yl)methanone] are above 50 µM and above 50 µM.
On the same counts, the results for `Nc1c2c(nn1C(=O)C1CCNc3ccc(F)cc31)CCC(F)(F)C2` (single isomer, unassigned) [Example 173, (S*)-(3-amino-5,5-difluoro-4,5,6,7-tetrahydroindazol-2-yl)(6-fluoro-1,2,3,4-tetrahydroquinolin-4-yl)methanone] are 30 µM and 0.1 µM.
On the same counts, the results for `Nc1c2c(nn1C(=O)c1csc3ccccc13)CCCC2` [Example 32, (3-amino-4,5,6,7-tetrahydroindazol-2-yl)(benzo[b]thiophen-3-yl)methanone] are above 50 µM and 0.15 µM.
As for `Cc1cc2c(n1S(C)(=O)=O)CCCC2C(=O)n1nc2c(c1N)CCCC2` (stereo not shown) [Example 90, (3-amino-4,5,6,7-tetrahydroindazol-2-yl)(2-methyl-1-(methylsulfonyl)-4,5,6,7-tetrahydro-1H-indol-4-yl)methanone], the IC50 on Human alpha-thrombin is 18 µM; on Human FXIIa, 0.3 µM.
Take `Nc1c2c(nn1C(=O)[C@@H]1CCCc3[nH]c(Cl)cc31)CC[C@H](O)C2` (single isomer, unassigned) [Example 128, ((5S*)-3-amino-5-hydroxy-4,5,6,7-tetrahydroindazol-2-yl)((4R*)-2-chloro-4,5,6,7-tetrahydro-1H-indol-4-yl)methanone]: the IC50 is above 65 µM at Human alpha-thrombin and 30 µM against Human FXIIa.
For `CS(=O)(=O)N1CCC(C(=O)n2nc3c(c2N)CCCC3)c2ccccc21` (stereo not shown) [Example 99, (3-amino-4,5,6,7-tetrahydroindazol-2-yl)(1-(methylsulfonyl)-1,2,3,4-tetrahydroquinolin-4-yl)methanone], the results for the IC50 against Human alpha-thrombin and against Human FXIIa were 22 µM and 1 µM, respectively.
For `O=C(c1cccc2[nH]ccc12)n1cc2c(n1)CCCC2` [Example 27, (1H-indol-4-yl)(4,5,6,7-tetrahydroindazol-2-yl)methanone], the IC50 against Human alpha-thrombin turned out to be 6 µM; against Human FXIIa, 0.4 µM.
For `Nc1c2c(nn1C(=O)C1CCc3ccccc31)CCCC2` (stereo not shown) [Example 46, (3-amino-4,5,6,7-tetrahydroindazol-2-yl)(2,3-dihydro-1H-inden-1-yl)methanone] the same measures were above 50 µM and 7.5 µM.
In the case of `Nc1c2c(nn1C(=O)[C@H]1CCNc3ccc(F)cc31)CC[C@@H](O)C2` (single isomer, unassigned) [Example 129, ((5R*)-3-amino-5-hydroxy-4,5,6,7-tetrahydro-2H-indazol-2-yl)(4(S*)-6-fluoro-1,2,3,4-tetrahydroquinolin-4-yl)methanone], the figures for the IC50 on Human alpha-thrombin and at Human FXIIa were above 150 µM and 0.05 µM, respectively.
On the same counts, the results for `Nc1nn(C(=O)[C@@H]2CCNc3ccccc32)c2c1C[C@H](O)CC2` (single isomer, unassigned) [Example 168, ((5R*)-3-amino-5-hydroxy-4,5,6,7-tetrahydroindazol-1-yl)((4R*)-1,2,3,4-tetrahydroquinolin-4-yl)methanone] are above 100 µM and above 100 µM.
On the same counts, the results for `Nc1c2c(nn1C(=O)C1CCNc3ccccc31)CCCC2` (single isomer, unassigned) [Example 76, (3-amino-4,5,6,7-tetrahydroindazol-2-yl)(1,2,3,4-tetrahydroquinolin-4-yl)methanone] are above 100 µM and 0.3 µM.
For `CCN1CCC(C(=O)n2nc3c(c2N)CCCC3)c2ccccc21` (single isomer, unassigned) [Example 74, (3-amino-4,5,6,7-tetrahydroindazol-2-yl)(1-ethyl-1,2,3,4-tetrahydroquinolin-4-yl)methanone] the same measures were above 100 µM and 0.5 µM.
`Cc1[nH]c2ccccc2c1C(=O)n1nc(N)c2c1CCCC2` [Example 154]: the IC50 on Human alpha-thrombin is above 50 µM; against Human FXIIa, 17 µM.
For `Nc1nn(C(=O)c2cccc3[nH]c(Br)cc23)c2c1CCCC2` (single isomer, unassigned) [Example 63, (3-amino-4,5,6,7-tetrahydroindazol-1-yl)(2-bromo-1H-indol-4-yl)methanone] the same measures were above 100 µM and 65 µM.
Turning to `Nc1c2c(nn1C(=O)c1cccc3c1ccn3-c1ccccc1)CCCC2` (single isomer, unassigned) [Example 20, (3-amino-4,5,6,7-tetrahydroindazol-2-yl)(1-phenyl-1H-indol-4-yl)methanone], the IC50 was above 100 µM against Human alpha-thrombin and 17.5 µM against Human FXIIa.
Consider `Cc1cc2c(C(=O)n3nc4c(c3N)CCCC4)cccc2o1` (single isomer, unassigned) [Example 58, (3-amino-4,5,6,7-tetrahydroindazol-2-yl)(2-methylbenzofuran-4-yl)methanone], for which the IC50 at Human alpha-thrombin was determined as 40 µM; against Human FXIIa, 0.06 µM.
On the same counts, the results for `Nc1nn(C(=O)c2cccc3[nH]c(C4CC4)cc23)c2c1CCCC2` (single isomer, unassigned) [Example 54, (3-amino-4,5,6,7-tetrahydroindazol-1-yl)(2-cyclopropyl-1H-indol-4-yl)methanone] are above 85 µM and 30 µM.
Consider `Nc1c2c(nn1C(=O)[C@H]1CCCc3[nH]c(Cl)cc31)CC[C@@H](O)C2` (single isomer, unassigned) [Example 126, ((5R*)-3-amino-5-hydroxy-4,5,6,7-tetrahydroindazol-2-yl)((4S*)-2-chloro-4,5,6,7-tetrahydro-1H-indol-4-yl)methanone], for which the IC50 on Human alpha-thrombin turned out to be 37 µM; against Human FXIIa it was 0.02 µM.
On the same counts, the results for `Cc1cccc2c1NCC[C@H]2C(=O)n1nc2c(c1N)CC[C@H](O)C2` (single isomer, unassigned) [Example 197, ((6S*)-3-amino-6-hydroxy-4,5,6,7-tetrahydroindazol-2-yl)((4R*)-8-methyl-1,2,3,4-tetrahydroquinolin-4-yl)methanone] are above 150 µM and 1.5 µM.
In the case of `CCc1ccccc1C(=O)n1nc(N)c2c1CCCC2` [Example 152], the IC50 on Human alpha-thrombin is above 100 µM; against Human FXIIa it was 25 µM.
For `CCc1cscc1C(=O)n1nc(N)c2c1CCCC2` (single isomer, unassigned) [Example 12, (3-amino-4,5,6,7-tetrahydroindazol-1-yl)(4-ethylthiophen-3-yl)methanone] the same measures were above 50 µM and above 50 µM.
On the same counts, the results for `Nc1nn(C(=O)[C@H]2CCNc3ccccc32)c2c1C[C@@H](O)CC2` (single isomer, unassigned) [Example 171, ((5S*)-3-amino-5-hydroxy-4,5,6,7-tetrahydroindazol-1-yl)((4S*)-1,2,3,4-tetrahydroquinolin-4-yl)methanone] are above 90 µM and above 90 µM.
For the compound `Nc1nn(C(=O)[C@H]2CCNc3ccccc32)c2c1C[C@H](O)CC2` (single isomer, unassigned) [Example 167, ((5R*)-3-amino-5-hydroxy-4,5,6,7-tetrahydroindazol-1-yl)((4S*)-1,2,3,4-tetrahydroquinolin-4-yl)methanone], the IC50 against Human alpha-thrombin and at Human FXIIa was above 80 µM in each case.

As a reminder, the IC50 is the concentration that gives 50% inhibition. A high value points to lower potency.
